How the values were obtained:
[1] = target: Stromelysin-1 (Homo sapiens, UniProt P08254)
Description: Inhibition of human fibroblast stromelysin (MMP-3)

[2] = target: 72 kDa type IV collagenase (Homo sapiens, UniProt P08253); experiment: Inhibition of human gelatinase A (MMP-2)
[3] = target: T1, Interstitial collagenase (Homo sapiens, UniProt P03956); experiment: Inhibition of human fibroblast collagenase (MMP-1)
T1 sequence (P03956 whole entry): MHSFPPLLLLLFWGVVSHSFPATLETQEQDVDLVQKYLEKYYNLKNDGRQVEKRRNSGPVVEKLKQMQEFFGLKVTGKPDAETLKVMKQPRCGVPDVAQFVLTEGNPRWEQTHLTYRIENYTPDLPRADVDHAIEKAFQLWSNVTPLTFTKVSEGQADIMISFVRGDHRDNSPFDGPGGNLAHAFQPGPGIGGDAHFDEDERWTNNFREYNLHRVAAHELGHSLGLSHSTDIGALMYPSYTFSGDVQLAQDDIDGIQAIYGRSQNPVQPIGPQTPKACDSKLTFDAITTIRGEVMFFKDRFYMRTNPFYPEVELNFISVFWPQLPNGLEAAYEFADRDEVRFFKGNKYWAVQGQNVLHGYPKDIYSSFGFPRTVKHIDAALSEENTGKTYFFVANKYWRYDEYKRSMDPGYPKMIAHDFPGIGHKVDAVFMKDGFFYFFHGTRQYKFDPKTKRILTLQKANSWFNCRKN

Stromelysin-1, sequence (P08254 whole entry): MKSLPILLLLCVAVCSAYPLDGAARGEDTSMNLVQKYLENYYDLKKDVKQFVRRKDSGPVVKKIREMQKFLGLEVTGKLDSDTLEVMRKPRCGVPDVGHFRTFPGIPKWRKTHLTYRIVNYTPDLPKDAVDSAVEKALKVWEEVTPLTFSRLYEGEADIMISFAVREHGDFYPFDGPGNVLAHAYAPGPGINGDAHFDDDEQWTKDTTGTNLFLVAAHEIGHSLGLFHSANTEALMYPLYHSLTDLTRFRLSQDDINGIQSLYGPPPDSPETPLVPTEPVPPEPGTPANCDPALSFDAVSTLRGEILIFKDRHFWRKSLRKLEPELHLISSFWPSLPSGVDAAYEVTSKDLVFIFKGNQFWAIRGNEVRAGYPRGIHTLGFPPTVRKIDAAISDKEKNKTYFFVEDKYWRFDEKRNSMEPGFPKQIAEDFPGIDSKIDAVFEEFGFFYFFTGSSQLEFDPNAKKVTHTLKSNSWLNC
72 kDa type IV collagenase, sequence (P08253 whole entry): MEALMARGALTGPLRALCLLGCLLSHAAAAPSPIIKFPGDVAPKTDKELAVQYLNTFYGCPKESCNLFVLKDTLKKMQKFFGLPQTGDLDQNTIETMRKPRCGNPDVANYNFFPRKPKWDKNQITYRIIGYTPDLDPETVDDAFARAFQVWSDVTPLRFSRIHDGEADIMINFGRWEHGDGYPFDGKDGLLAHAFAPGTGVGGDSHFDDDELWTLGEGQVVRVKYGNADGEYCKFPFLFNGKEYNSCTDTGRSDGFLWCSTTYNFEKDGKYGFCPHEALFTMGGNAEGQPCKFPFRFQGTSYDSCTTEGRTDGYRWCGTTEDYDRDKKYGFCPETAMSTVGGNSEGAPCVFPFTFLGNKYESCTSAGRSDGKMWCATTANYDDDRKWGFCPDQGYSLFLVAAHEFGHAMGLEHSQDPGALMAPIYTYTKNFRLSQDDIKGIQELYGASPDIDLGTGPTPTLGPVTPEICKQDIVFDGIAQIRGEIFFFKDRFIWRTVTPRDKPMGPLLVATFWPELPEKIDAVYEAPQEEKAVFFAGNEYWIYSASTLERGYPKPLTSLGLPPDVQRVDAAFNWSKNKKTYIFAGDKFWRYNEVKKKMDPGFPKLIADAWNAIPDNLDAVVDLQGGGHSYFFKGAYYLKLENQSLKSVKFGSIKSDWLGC

Compound	Ki [1] [nM]	Ki [2] [nM]	Ki [3] [nM]
CCCCCCCC[C@H](N[C@H](C)C(=O)O)C(=O)N[C@@H](CCCN=C(N)N)C(=O)Nc1ccccc1	1600	120	> 10000
CC(C)C[C@H](NC(=O)[C@H](CCCCCCCCCN)N[C@H](C)C(=O)O)C(=O)Nc1ccccc1	240	500	> 10000
CC(C)C[C@H](NC(=O)[C@H](CCc1ccccc1)N[C@H](C)C(=O)O)C(=O)Nc1ccccc1 [L-696418]	–	200	760
C[C@@H](N[C@@H](CCCCCCCCCN)C(=O)N[C@@H](CCCN=C(N)N)C(=O)Nc1ccccc1)C(=O)O	370	110	> 10000
CCCCCCCC[C@H](N[C@H](C)C(=O)O)C(=O)N[C@@H](CC(C)C)C(=O)Nc1ccccc1	570	340	> 10000
CCCCCCCCCC[C@H](N[C@H](C)C(=O)O)C(=O)N[C@@H](CC(C)C)C(=O)Nc1ccccc1	850	560	> 10000
